Test: xn = mol fraction of the nth substance listed
Conditions: 100 kPa, Liquid; for viscosity: Falling or rolling sphere viscometry; for mass density: Vibrating tube method

CCCCCCCCCCCC(=O)OC [methyl dodecanoate] + CC1CCCCC1
Conditions | mass density [kg/m3] | viscosity [mPa·s]
293.15 K, x2 = 0 | 869.3 | 3.151
293.15 K, x2 = 0.1 | 863.68 | 2.838
293.15 K, x2 = 0.2 | 857.47 | 2.545
293.15 K, x2 = 0.3 | 850.62 | 2.264
293.15 K, x2 = 0.4001 | 842.9 | 2
293.15 K, x2 = 0.5001 | 834.34 | 1.743
293.15 K, x2 = 0.6 | 824.66 | 1.501
293.15 K, x2 = 0.6999 | 813.62 | 1.28
293.15 K, x2 = 0.8 | 801 | 1.071
293.15 K, x2 = 0.8999 | 786.46 | 0.887
298.15 K, x2 = 0 | 865.39 | 2.792
298.15 K, x2 = 0.1 | 859.76 | 2.527
298.15 K, x2 = 0.2 | 853.54 | 2.28
298.15 K, x2 = 0.3 | 846.68 | 2.041
298.15 K, x2 = 0.4001 | 838.94 | 1.811
298.15 K, x2 = 0.5001 | 830.36 | 1.587
298.15 K, x2 = 0.6 | 820.65 | 1.373
298.15 K, x2 = 0.6999 | 809.56 | 1.177
298.15 K, x2 = 0.8 | 796.88 | 0.992
298.15 K, x2 = 0.8999 | 782.25 | 0.825
303.15 K, x2 = 0 | 861.46 | 2.504
303.15 K, x2 = 0.1 | 855.83 | 2.279
303.15 K, x2 = 0.2 | 849.6 | 2.06
303.15 K, x2 = 0.3 | 842.72 | 1.85
303.15 K, x2 = 0.4001 | 834.97 | 1.646
303.15 K, x2 = 0.5001 | 826.36 | 1.448
303.15 K, x2 = 0.6 | 816.61 | 1.261
303.15 K, x2 = 0.6999 | 805.48 | 1.087
303.15 K, x2 = 0.8 | 792.75 | 0.919
303.15 K, x2 = 0.8999 | 778.03 | 0.77
308.15 K, x2 = 0 | 857.53 | 2.263
308.15 K, x2 = 0.1 | 851.9 | 2.064
308.15 K, x2 = 0.2 | 845.67 | 1.876
308.15 K, x2 = 0.3 | 838.76 | 1.693
308.15 K, x2 = 0.4001 | 830.99 | 1.512
308.15 K, x2 = 0.5001 | 822.36 | 1.339
308.15 K, x2 = 0.6 | 812.57 | 1.168
308.15 K, x2 = 0.6999 | 801.4 | 1.007
308.15 K, x2 = 0.8 | 788.6 | 0.858
308.15 K, x2 = 0.8999 | 773.79 | 0.722
313.15 K, x2 = 0 | 853.61 | 2.049
313.15 K, x2 = 0.1 | 847.96 | 1.877
313.15 K, x2 = 0.2 | 841.71 | 1.714
313.15 K, x2 = 0.3 | 834.79 | 1.552
313.15 K, x2 = 0.4001 | 827.01 | 1.393
313.15 K, x2 = 0.5001 | 818.35 | 1.237
313.15 K, x2 = 0.6 | 808.52 | 1.086
313.15 K, x2 = 0.6999 | 797.31 | 0.937
313.15 K, x2 = 0.8 | 784.44 | 0.801
313.15 K, x2 = 0.8999 | 769.54 | 0.676
318.15 K, x2 = 0 | 849.69 | 1.875
318.15 K, x2 = 0.1 | 844.02 | 1.725
318.15 K, x2 = 0.2 | 837.77 | 1.581
318.15 K, x2 = 0.3 | 830.83 | 1.437
318.15 K, x2 = 0.4001 | 823.02 | 1.294
318.15 K, x2 = 0.5001 | 814.32 | 1.151
318.15 K, x2 = 0.6 | 804.45 | 1.012
318.15 K, x2 = 0.6999 | 793.18 | 0.879
318.15 K, x2 = 0.8 | 780.26 | 0.754
318.15 K, x2 = 0.8999 | 765.28 | 0.638
323.15 K, x2 = 0 | 845.76 | 1.729
323.15 K, x2 = 0.1 | 840.08 | 1.592
323.15 K, x2 = 0.2 | 833.81 | 1.461
323.15 K, x2 = 0.3 | 826.86 | 1.332
323.15 K, x2 = 0.4001 | 819.02 | 1.202
323.15 K, x2 = 0.5001 | 810.28 | 1.073
323.15 K, x2 = 0.6 | 800.37 | 0.946
323.15 K, x2 = 0.6999 | 789.06 | 0.826
323.15 K, x2 = 0.8 | 776.07 | 0.711
323.15 K, x2 = 0.8999 | 761 | 0.603

CCCCCCCCCCCCCC(=O)OC [methyl tetradecanoate] + CC1CCCCC1
Conditions | mass density [kg/m3] | viscosity [mPa·s]
293.15 K, x2 = 0 | 867.17 | 4.557
293.15 K, x2 = 0.1 | 862.3 | 4.065
293.15 K, x2 = 0.2 | 856.82 | 3.591
293.15 K, x2 = 0.3 | 850.69 | 3.141
293.15 K, x2 = 0.4003 | 843.72 | 2.706
293.15 K, x2 = 0.5001 | 835.76 | 2.304
293.15 K, x2 = 0.6 | 826.55 | 1.925
293.15 K, x2 = 0.6999 | 815.89 | 1.578
293.15 K, x2 = 0.8 | 803.17 | 1.267
293.15 K, x2 = 0.8999 | 787.98 | 0.982
298.15 K, x2 = 0 | 863.35 | 3.979
298.15 K, x2 = 0.1 | 858.46 | 3.575
298.15 K, x2 = 0.2 | 853 | 3.176
298.15 K, x2 = 0.3 | 846.86 | 2.792
298.15 K, x2 = 0.4003 | 839.87 | 2.424
298.15 K, x2 = 0.5001 | 831.9 | 2.072
298.15 K, x2 = 0.6 | 822.64 | 1.743
298.15 K, x2 = 0.6999 | 811.92 | 1.438
298.15 K, x2 = 0.8 | 799.13 | 1.163
298.15 K, x2 = 0.8999 | 783.83 | 0.91
303.15 K, x2 = 0 | 859.54 | 3.519
303.15 K, x2 = 0.1 | 854.64 | 3.179
303.15 K, x2 = 0.2 | 849.17 | 2.838
303.15 K, x2 = 0.3 | 843.02 | 2.507
303.15 K, x2 = 0.4003 | 836.01 | 2.19
303.15 K, x2 = 0.5001 | 828.01 | 1.884
303.15 K, x2 = 0.6 | 818.71 | 1.6
303.15 K, x2 = 0.6999 | 807.93 | 1.327
303.15 K, x2 = 0.8 | 795.07 | 1.078
303.15 K, x2 = 0.8999 | 779.65 | 0.848
308.15 K, x2 = 0 | 855.74 | 3.093
308.15 K, x2 = 0.1 | 850.83 | 2.803
308.15 K, x2 = 0.2 | 845.36 | 2.515
308.15 K, x2 = 0.3 | 839.19 | 2.234
308.15 K, x2 = 0.4003 | 832.16 | 1.962
308.15 K, x2 = 0.5001 | 824.11 | 1.695
308.15 K, x2 = 0.6 | 814.78 | 1.445
308.15 K, x2 = 0.6999 | 803.92 | 1.205
308.15 K, x2 = 0.8 | 791 | 0.987
308.15 K, x2 = 0.8999 | 775.46 | 0.782
313.15 K, x2 = 0 | 851.94 | 2.797
313.15 K, x2 = 0.1 | 847.02 | 2.552
313.15 K, x2 = 0.2 | 841.53 | 2.302
313.15 K, x2 = 0.3 | 835.34 | 2.054
313.15 K, x2 = 0.4003 | 828.29 | 1.803
313.15 K, x2 = 0.5001 | 820.21 | 1.564
313.15 K, x2 = 0.6 | 810.83 | 1.336
313.15 K, x2 = 0.6999 | 799.9 | 1.121
313.15 K, x2 = 0.8 | 786.91 | 0.918
313.15 K, x2 = 0.8999 | 771.26 | 0.735
318.15 K, x2 = 0 | 848.14 | 2.544
318.15 K, x2 = 0.1 | 843.22 | 2.325
318.15 K, x2 = 0.2 | 837.71 | 2.101
318.15 K, x2 = 0.3 | 831.5 | 1.879
318.15 K, x2 = 0.4003 | 824.42 | 1.661
318.15 K, x2 = 0.5001 | 816.31 | 1.45
318.15 K, x2 = 0.6 | 806.88 | 1.249
318.15 K, x2 = 0.6999 | 795.9 | 1.052
318.15 K, x2 = 0.8 | 782.82 | 0.868
318.15 K, x2 = 0.8999 | 767.04 | 0.695
323.15 K, x2 = 0 | 844.34 | 2.308
323.15 K, x2 = 0.1 | 839.41 | 2.115
323.15 K, x2 = 0.2 | 833.87 | 1.92
323.15 K, x2 = 0.3 | 827.63 | 1.728
323.15 K, x2 = 0.4003 | 820.53 | 1.534
323.15 K, x2 = 0.5001 | 812.38 | 1.345
323.15 K, x2 = 0.6 | 802.92 | 1.161
323.15 K, x2 = 0.6999 | 791.88 | 0.985
323.15 K, x2 = 0.8 | 778.71 | 0.819
323.15 K, x2 = 0.8999 | 762.81 | 0.658

From the NIST ThermoML archive (doi:10.1016/j.jct.2019.05.021)
